One may read the IC50 as the concentration that gives 50% inhibition. Low values mean greater potency in that assay, high ones weaker potency in that assay.

19 molecules from patent US20160244437A1, “SUBSTITUTED PHENYLALANINE DERIVATIVES” (BAYER PHARMA AKTIENGESELLSCHAFT, priority 2013, published 2016) can be followed below.

Where a name gives a salt, the structure may show the parent alone.

The subject of one assay is human and animal plasma. Put plainly: Determination of anticoagulatory activity: activated partial thromboplastin time (aPTT) in plasma. As to conditions: concentration of test substance which brings about a 1.5-fold extension of the aPTT; plasma in vitro, C.K. Prest kit. In short, it runs like this:
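Citrated plasma (human, mouse, rat, rabbit, pig, dog) incubated with varying compound concentrations and cephalin/kaolin PTT reagent for 3 minutes at 37° C.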

In the next assay the target is T1, human factor XIa (Homo sapiens, UniProt P03951).
T1 construct: purchased Kordia
T1 sequence (P03951 388-625 limits assumed): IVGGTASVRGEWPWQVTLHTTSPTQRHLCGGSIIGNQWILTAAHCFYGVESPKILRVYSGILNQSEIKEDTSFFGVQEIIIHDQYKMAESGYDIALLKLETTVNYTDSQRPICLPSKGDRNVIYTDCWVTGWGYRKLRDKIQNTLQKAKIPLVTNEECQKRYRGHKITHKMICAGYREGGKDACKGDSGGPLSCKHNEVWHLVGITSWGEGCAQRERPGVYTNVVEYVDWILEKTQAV
T1 sequence (P03951 19-387 partner limits assumed): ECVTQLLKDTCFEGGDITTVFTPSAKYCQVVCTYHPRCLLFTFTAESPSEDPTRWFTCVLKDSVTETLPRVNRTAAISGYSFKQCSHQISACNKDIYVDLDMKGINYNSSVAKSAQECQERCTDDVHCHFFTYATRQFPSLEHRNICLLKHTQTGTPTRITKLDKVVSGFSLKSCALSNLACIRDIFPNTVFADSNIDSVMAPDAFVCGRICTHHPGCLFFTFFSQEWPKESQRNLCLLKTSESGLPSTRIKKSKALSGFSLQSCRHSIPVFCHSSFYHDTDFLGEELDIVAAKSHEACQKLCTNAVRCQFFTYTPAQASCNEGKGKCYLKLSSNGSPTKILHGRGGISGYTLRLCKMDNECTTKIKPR
Put plainly: Measurement of FXIa inhibition (fluorogenic peptide substrate Boc-Glu(OBzl)-Ala-Arg-AMC). The format is biochemical. The settings on record: factor XIa from Kordia 0.45 nM, 15 min pre-incubation, 30 min at 22° C., fluorescence.

Consider `COc1ccc(C[C@H](NC(=O)[C@H]2CC[C@H](CN)CC2)C(=O)Nc2ccc(-c3nn[nH]n3)cc2)cc1-c1ccc(C(=O)NCCN)cc1C` [Example 58, N-(2-Aminoethyl)-5′-[(2S)-2-({[trans-4-(aminomethyl)cyclohexyl]carbonyl}amino)-3-oxo-3-{[4-(2H-tetrazol-5-yl)phenyl]amino}propyl]-2′-methoxy-2-methylbiphenyl-4-carboxamide hydrochloride], for which, in the assay on human and animal plasma, the aPTT is 0.3 µmol/L. Further, the concentration for half-maximal inhibition (IC50) at human factor XIa turned out to be 17 nM.

Turning to `Cc1cc(S(=O)(=O)NC2CCNCC2)ccc1-c1cccc(C[C@H](NC(=O)[C@H]2CC[C@H](CN)CC2)C(=O)Nc2ccc(-c3nnc(Cl)[nH]3)cc2)c1` [Example 55, trans-4-(Aminomethyl)-N-{(2S)-1-{[4-(3-chloro-4H-1,2,4-triazol-5-yl)phenyl]amino}-3-[2′-methyl-4′-(piperidin-4-ylsulphamoyl)biphenyl-3-yl]-1-oxopropan-2-yl}cyclohexanecarboxamide hydrochloride], in the assay with human and animal plasma, the aPTT turned out to be 0.14 µmol/L. On human factor XIa, this molecule showed a half-inhibitory concentration (IC50) of 4.3 nM.

For the molecule `Cc1ccc(S(=O)(=O)N2CCCC2)cc1-c1cccc(C[C@H](NC(=O)[C@H]2CC[C@H](CN)CC2)C(=O)Nc2ccc3[nH]c(=O)[nH]c3c2)c1` [Example 11, trans-4-(Aminomethyl)-N-{(2S)-3-[2′-methyl-5′-(pyrrolidin-1-ylsulphonyl)biphenyl-3-yl]-1-oxo-1-[(2-oxo-2,3-dihydro-1H-benzimidazol-5-yl)amino]propan-2-yl}cyclohexanecarboxamide hydrochloride], the aPTT in the assay with human and animal plasma stood at 0.3 µmol/L. In addition, half-maximal inhibition on human factor XIa (IC50) was put at 7.9 nM.

With `NC[C@H]1CC[C@H](C(=O)N[C@@H](Cc2cccc(-c3cnc(N4CCNCC4)nc3)c2)C(=O)Nc2ccc3[nH]c(=O)[nH]c3c2)CC1` [Example 67, N-alpha-{[trans-4-(Aminomethyl)cyclohexyl]carbonyl}-N-(2-oxo-2,3-dihydro-1H-benzimidazol-5-yl)-3-[2-(piperazin-1-yl)pyrimidin-5-yl]-L-phenylalaninamide hydrochloride], the aPTT with human and animal plasma came to 0.15 µmol/L. For the same molecule, the midpoint of inhibition against human factor XIa, the IC50, lay at 37 nM.

For the molecule `CC(=O)Nc1ccc(Cl)c(-c2cccc(C[C@H](NC(=O)[C@H]3CC[C@H](CN)CC3)C(=O)Nc3ccc(-c4nnn[nH]4)cc3)c2)c1` [Example 86, trans-N-[(2S)-3-[5′-(Acetylamino)-2′-chlorobiphenyl-3-yl]-1-oxo-1-{[4-(1H-tetrazol-5-yl)phenyl]amino}propan-2-yl]-4-(aminomethyl)cyclohexanecarboxamide hydrochloride], the aPTT with human and animal plasma turned out to be 0.24 µmol/L. For the same molecule, on human factor XIa, the 50% inhibitory concentration (IC50) is 2.5 nM.

In the assay with human and animal plasma, `NC[C@H]1CC[C@H](C(=O)N[C@@H](Cc2cccc(-c3cccc(C(=O)N4CCOCC4)c3)c2)C(=O)Nc2ccc(-c3nnn[nH]3)cc2)CC1` [Example 47, trans-4-(Aminomethyl)-N-[(2S)-3-[3′-(morpholin-4-ylcarbonyl)biphenyl-3-yl]-1-oxo-1-{[4-(1H-tetrazol-5-yl)phenyl]amino}propan-2-yl]cyclohexanecarboxamide hydrochloride] showed an aPTT of 0.34 µmol/L. This molecule registered an IC50 at human factor XIa of 5.2 nM.

`CN(C)CCCOc1ccc(-c2cccc(C[C@H](NC(=O)[C@H]3CC[C@H](CN)CC3)C(=O)Nc3ccc(-c4nnc(C(F)(F)F)[nH]4)cc3)c2)cn1` [Example 101, N-alpha-{[trans-4-(Aminomethyl)cyclohexyl]carbonyl}-3-{6-[3-(dimethylamino)propoxy]pyridin-3-yl}-N-{4-[3-(trifluoromethyl)-4H-1,2,4-triazol-5-yl]phenyl}-L-phenylalaninamide hydrochloride] displayed an aPTT with human and animal plasma of 0.43 µmol/L. The same molecule came in with a 50% inhibitory concentration (IC50) against human factor XIa of 14 nM.

`Cc1ccc(S(=O)(=O)NCc2ccccc2)cc1-c1cccc(C[C@H](NC(=O)[C@H]2CC[C@H](CN)CC2)C(=O)Nc2ccc(-c3nnn[nH]3)cc2)c1` [Example 1, trans-4-(Aminomethyl)-N-[(2S)-3-[5′-(benzylsulphamoyl)-2′-methylbiphenyl-3-yl]-1-oxo-1-{[4-(1H-tetrazol-5-yl)phenyl]amino}propan-2-yl]cyclohexanecarboxamide hydrochloride]: in the assay with human and animal plasma, the aPTT is 0.1 µmol/L. The IC50 against human factor XIa was 0.4 nM.

In turn, `Cc1ccc(S(=O)(=O)N2CCOCC2)cc1-c1cccc(C[C@H](NC(=O)[C@H]2CC[C@H](CN)CC2)C(=O)Nc2ccc(-c3n[nH]c(=O)[nH]3)cc2)c1` [Example 9, trans-4-(Aminomethyl)-N-[(2S)-3-[2′-methyl-5′-(morpholin-4-ylsulphonyl)biphenyl-3-yl]-1-oxo-1-{[4-(5-oxo-4,5-dihydro-1H-1,2,4-triazol-3-yl)phenyl]amino}propan-2-yl]cyclohexanecarboxamide hydrochloride] showed an aPTT with human and animal plasma of 0.14 µmol/L. The IC50 on human factor XIa came out at 9.6 nM.

In the assay with human and animal plasma, `Cc1ccc(S(=O)(=O)NCc2ccccc2)cc1-c1cccc(C[C@H](NC(=O)[C@H]2CC[C@H](CN)CC2)C(=O)Nc2ccc(-c3n[nH]c(=O)[nH]3)cc2)c1` [Example 13, trans-4-(Aminomethyl)-N-[(2S)-3-[5′-(benzylsulphamoyl)-2′-methylbiphenyl-3-yl]-1-oxo-1-{[4-(5-oxo-4,5-dihydro-1H-1,2,4-triazol-3-yl)phenyl]amino}propan-2-yl]cyclohexanecarboxamide hydrochloride] showed an aPTT of 0.47 µmol/L. Moreover, the IC50 on human factor XIa was found to be 9.2 nM.

Molecule `Cc1cc(S(=O)(=O)N(C)C)ccc1-c1cccc(C[C@H](NC(=O)[C@H]2CC[C@H](CN)CC2)C(=O)Nc2ccc(-c3nnn[nH]3)cc2)c1` [Example 7, trans-4-(Aminomethyl)-N-[(2S)-3-[4′-(dimethylsulphamoyl)-2′-methylbiphenyl-3-yl]-1-oxo-1-{[4-(1H-tetrazol-5-yl)phenyl]amino}propan-2-yl]cyclohexanecarboxamide hydrochloride] displayed an aPTT with human and animal plasma of 0.33 µmol/L. Moreover, at human factor XIa, the IC50 amounted to 1.7 nM.

On to `NC[C@H]1CC[C@H](C(=O)N[C@@H](Cc2cccc(-c3cccc(S(N)(=O)=O)c3)c2)C(=O)Nc2ccc(-c3nnn[nH]3)cc2)CC1` [Example 5, trans-4-(Aminomethyl)-N-[(2S)-1-oxo-3-(3′-sulphamoylbiphenyl-3-yl)-1-{[4-(1H-tetrazol-5-yl)phenyl]amino}propan-2-yl]cyclohexanecarboxamide hydrochloride], for which the aPTT in the assay with human and animal plasma amounted to 0.23 µmol/L. The molecule further gave a half-inhibitory concentration (IC50) against human factor XIa of 3.4 nM.

As to `Cc1ccc(S(=O)(=O)N(C)C)cc1-c1cccc(C[C@H](NC(=O)[C@H]2CC[C@H](CN)CC2)C(=O)Nc2ccc3[nH]c(=O)[nH]c3c2)c1` [Example 44, trans-4-(Aminomethyl)-N-{(2S)-3-[5′-(dimethylsulphamoyl)-2′-methylbiphenyl-3-yl]-1-oxo-1-[(2-oxo-2,3-dihydro-1H-benzimidazol-5-yl)amino]propan-2-yl}cyclohexanecarboxamide hydrochloride], in the assay with human and animal plasma, the aPTT was found to be 0.28 µmol/L. The molecule further returned a half-maximal inhibitory concentration (IC50) against human factor XIa of 13 nM.

For the molecule `Cc1ccc(C[C@H](NC(=O)[C@H]2CC[C@H](CN)CC2)C(=O)Nc2ccc(-c3nnn[nH]3)cc2)cc1-c1ccc(C(=O)NC2CCNCC2)cc1` [Example 49, 5′-[(2S)-2-({[trans-4-(Aminomethyl)cyclohexyl]carbonyl}amino)-3-oxo-3-{[4-(1H-tetrazol-5-yl)phenyl]amino}propyl]-2′-methyl-N-(piperidin-4-yl)biphenyl-4-carboxamide hydrochloride], the aPTT in the assay with human and animal plasma was determined as 0.47 µmol/L. The molecule further displayed an IC50 against human factor XIa of 21 nM.

Regarding `Cc1ccc(C(=O)NC2CCNCC2)cc1-c1cccc(C[C@H](NC(=O)[C@H]2CC[C@H](CN)CC2)C(=O)Nc2ccc(-c3nnn[nH]3)cc2)c1` [Example 14, 3′-[(2S)-2-({[trans-4-(Aminomethyl)cyclohexyl]carbonyl}amino)-3-oxo-3-{[4-(1H-tetrazol-5-yl)phenyl]amino}propyl]-6-methyl-N-(piperidin-4-yl)biphenyl-3-carboxamide hydrochloride], the aPTT in the assay on human and animal plasma was 0.15 µmol/L. Further, the IC50 against human factor XIa stood at 4.8 nM.

Take `CN(C)CCCOc1ccc(-c2cccc(C[C@H](NC(=O)[C@H]3CC[C@H](CN)CC3)C(=O)Nc3ccc(-c4nc(C(F)(F)C(F)(F)C(=O)O)n[nH]4)cc3)c2)cn1` [Example 109, hydrochloride]: the aPTT with human and animal plasma was determined as 0.16 µmol/L. The molecule further came in with an IC50 against human factor XIa of 6 nM.

The molecule `NC[C@H]1CC[C@H](C(=O)N[C@@H](Cc2cccc(-c3cccnc3C(F)(F)F)c2)C(=O)Nc2ccc(-c3nnn[nH]3)cc2)CC1` [Example 81, N-alpha-{[trans-4-(Aminomethyl)cyclohexyl]carbonyl}-N-[4-(1H-tetrazol-5-yl)phenyl]-3-[2-(trifluoromethyl)pyridin-3-yl]-L-phenylalaninamide hydrochloride] had an aPTT in the assay with human and animal plasma of 0.3 µmol/L. In addition, at human factor XIa, the midpoint of inhibition, the IC50, lay at 2.5 nM.

`CN(C)CCCOc1ccc(-c2cccc(C[C@H](NC(=O)[C@H]3CC[C@H](CN)CC3)C(=O)Nc3ccc(-c4nnc(Cl)[nH]4)cc3)c2)cn1` [Example 90, N-alpha-{[trans-4-(Aminomethyl)cyclohexyl]carbonyl}-N-[4-(3-chloro-4H-1,2,4-triazol-5-yl)phenyl]-3-{6-[3-(dimethylamino)propoxy]pyridin-3-yl}-L-phenylalaninamide hydrochloride] gave an aPTT with human and animal plasma of 0.08 µmol/L. Also, on human factor XIa, the midpoint of inhibition, the IC50, lay at 5.8 nM.

Take `Cc1ccc(S(=O)(=O)N2CCOCC2)cc1-c1cccc(C[C@H](NC(=O)[C@H]2CC[C@H](CN)CC2)C(=O)Nc2ccc3[nH]c(=O)[nH]c3c2)c1` [Example 10, trans-4-(Aminomethyl)-N-{(2S)-3-[2′-methyl-5′-(morpholin-4-ylsulphonyl)biphenyl-3-yl]-1-oxo-1-[(2-oxo-2,3-dihydro-1H-benzimidazol-5-yl)amino]propan-2-yl}cyclohexanecarboxamide hydrochloride]: the aPTT in the assay with human and animal plasma came out at 0.23 µmol/L. The IC50 against human factor XIa was found to be 13 nM.
